Data from patent US10323038B2, “Pyrazole compounds and methods of making and using same” (ABIDE THERAPEUTICS, INC., priority 2015, dated 2019).

How the values were obtained:
MAGL [1] = target: T1, MAGL (Mus musculus (Mouse), UniProt O35678); experiment: In vitro competitive activity-based protein profiling, MAGL (mouse); assay type: biochemical; conditions: for inhibition at 1 µM: read-out: MAGL % inh. 1 μM (mouse)
Method in brief: (§1)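 Residual MAGL and FAAH activity quantified from fluorescent gel bands after SDS-PAGE. Before that, FP-Rh or HT-01 probe (50 μM stock) labelled for 30 min at 37 °C, following 30 min inhibitor preincubation. Mouse assays used brain membrane fraction or cell lysates, human used prefrontal cortex or cell membranes, all at 1.0 mg/mL protein.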

FAAH [2] = target: FAAH (Mus musculus (Mouse), UniProt O08914); experiment: In vitro competitive activity-based protein profiling, FAAH (mouse); assay type: biochemical; conditions: for inhibition at 1 µM: read-out: FAAH % inh. 1 μM (mouse)
Chain of FAAH (Mus musculus (Mouse), UniProt O08914) (O08914 whole entry): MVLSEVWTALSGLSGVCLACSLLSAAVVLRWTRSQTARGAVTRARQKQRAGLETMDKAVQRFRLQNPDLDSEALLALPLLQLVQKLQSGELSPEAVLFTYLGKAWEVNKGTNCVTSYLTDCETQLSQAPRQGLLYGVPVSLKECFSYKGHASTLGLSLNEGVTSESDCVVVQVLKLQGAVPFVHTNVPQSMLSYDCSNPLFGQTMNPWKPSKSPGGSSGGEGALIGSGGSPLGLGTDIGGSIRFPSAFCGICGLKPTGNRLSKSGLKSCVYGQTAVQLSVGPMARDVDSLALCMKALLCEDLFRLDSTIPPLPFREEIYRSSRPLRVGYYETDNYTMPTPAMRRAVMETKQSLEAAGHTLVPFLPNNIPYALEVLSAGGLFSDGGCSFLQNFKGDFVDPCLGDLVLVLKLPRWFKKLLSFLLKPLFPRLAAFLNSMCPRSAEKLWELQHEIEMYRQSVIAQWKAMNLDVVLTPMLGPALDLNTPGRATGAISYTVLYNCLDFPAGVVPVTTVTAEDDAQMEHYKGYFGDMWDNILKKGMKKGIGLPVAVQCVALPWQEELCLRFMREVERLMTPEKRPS
Method in brief: as §1

MAGL [3] = target: T1, MAGL; experiment: Mouse brain proteomes from inhibitor treated mice (oral gavage, 4 h), MAGL; assay type: in vivo; conditions: read-out: MAGL % inh. 5 mg/kg (mouse)
Procedure: Preparation of Mouse Brain Proteomes from Inhibitor Treated Mice.
Inhibitors were administered to wild-type C57Bl/6J by oral gavage in a vehicle of polyethylene glycol. Each animal was sacrificed 4 h following administration and brain proteomes were prepared and analyzed according to previously established methods (See Niphakis, M. J., et al. (2011) ACS Chem. Neurosci. and Long, J. Z., et al. Nat. Chem. Biol. 5:37-44).

MAGL [4] = target: MAGL (Homo sapiens (Human), UniProt Q99685); experiment: In vitro competitive activity-based protein profiling, MAGL (human); assay type: biochemical; conditions: 10 μM, human proteome; read-out: MAGL % inh. 10 μM (human)
Chain of MAGL (Homo sapiens (Human), UniProt Q99685) (Q99685 whole entry): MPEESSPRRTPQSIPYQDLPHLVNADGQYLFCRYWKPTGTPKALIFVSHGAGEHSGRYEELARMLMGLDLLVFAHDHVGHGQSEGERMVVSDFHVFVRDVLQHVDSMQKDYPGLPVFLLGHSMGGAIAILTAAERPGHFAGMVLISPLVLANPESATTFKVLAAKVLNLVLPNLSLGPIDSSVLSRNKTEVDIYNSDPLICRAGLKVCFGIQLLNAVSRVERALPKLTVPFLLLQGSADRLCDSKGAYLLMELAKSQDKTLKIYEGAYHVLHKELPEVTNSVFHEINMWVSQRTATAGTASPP
Procedure: (§2) In Vitro Competitive Activity-Based Protein Profiling.
(§3) Proteomes (mouse brain membrane fraction or cell lysates for mouse assays; human prefrontal cortex or cell membrane fractions for human assays) (50 μL, 1.0 mg/mL total protein concentration) were preincubated with varying concentrations of inhibitors at 37° C. After 30 min, FP—Rh or HT-01 (1.0 μL, 50 μM in DMSO) was added and the mixture was incubated for another 30 min at 37° C. Reactions were quenched with SDS loading buffer (15 μL-4×) and run on SDS-PAGE. Following gel imaging, serine hydrolase activity was determined by measuring fluorescent intensity of gel bands corresponding to MAGL and FAAH using ImageJ 1.43u software.

FAAH [5] = target: FAAH (Homo sapiens (Human), UniProt O00519); experiment: In vitro competitive activity-based protein profiling, FAAH (human); assay type: biochemical; conditions: 10 μM, human proteome; read-out: FAAH % inh. 10 μM (human)
Chain of FAAH (Homo sapiens (Human), UniProt O00519) (O00519 whole entry): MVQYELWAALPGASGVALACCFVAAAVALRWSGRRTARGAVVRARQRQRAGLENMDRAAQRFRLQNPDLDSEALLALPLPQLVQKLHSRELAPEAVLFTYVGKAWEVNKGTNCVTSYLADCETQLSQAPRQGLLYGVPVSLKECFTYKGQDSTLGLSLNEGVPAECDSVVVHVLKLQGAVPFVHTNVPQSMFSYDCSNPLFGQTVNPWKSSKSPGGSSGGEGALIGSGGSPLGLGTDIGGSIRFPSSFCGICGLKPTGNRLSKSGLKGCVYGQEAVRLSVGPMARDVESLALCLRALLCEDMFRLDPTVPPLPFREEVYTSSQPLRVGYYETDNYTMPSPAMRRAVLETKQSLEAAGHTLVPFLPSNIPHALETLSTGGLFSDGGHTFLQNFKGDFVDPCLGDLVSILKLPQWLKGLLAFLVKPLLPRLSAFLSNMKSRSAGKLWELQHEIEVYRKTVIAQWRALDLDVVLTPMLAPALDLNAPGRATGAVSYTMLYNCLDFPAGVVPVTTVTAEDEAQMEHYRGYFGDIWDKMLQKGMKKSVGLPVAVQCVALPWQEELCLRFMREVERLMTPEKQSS
Procedure: as §2, §3

T1 sequence (O35678 whole entry): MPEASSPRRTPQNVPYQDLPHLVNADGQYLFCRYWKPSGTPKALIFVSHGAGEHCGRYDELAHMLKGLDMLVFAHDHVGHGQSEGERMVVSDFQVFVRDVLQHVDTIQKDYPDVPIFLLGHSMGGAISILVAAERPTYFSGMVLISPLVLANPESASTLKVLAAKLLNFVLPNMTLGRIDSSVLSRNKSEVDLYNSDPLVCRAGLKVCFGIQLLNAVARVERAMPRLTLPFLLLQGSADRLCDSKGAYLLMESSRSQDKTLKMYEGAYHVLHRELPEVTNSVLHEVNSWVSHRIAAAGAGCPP

| IC50 (MAGL [1]) | inhibition at 1 µM (MAGL [1]) | IC50 (FAAH [2]) | inhibition at 1 µM (FAAH [2]) | inhibition at 5 mg/kg (MAGL [3]) | inhibition at 10 µM (MAGL [4]) | inhibition at 10 µM (FAAH [5]) | SMILES |
| --- | --- | --- | --- | --- | --- | --- | --- |
| 100 to 1000 nM | ≥ 75% | ≤ 100 nM | ≥ 75% | ≥ 75% |  |  | CC(=O)N(C)c1cnn(C(=O)N2CC3CN(Cc4ccc(Cl)cc4)CC3C2)c1 (stereo not shown) [Example 11, N-(1-(5-(4-chlorobenzyl)octahydropyrrolo[3,4-c]pyrrole-2-carbonyl)-1H-pyrazol-4-yl)-N-methylacetamide] |
| 100 to 1000 nM | ≥ 75% | ≤ 100 nM | ≥ 75% | 50 to 75% |  |  | CC(=O)N(C)c1cnn(C(=O)N2CC3CN(Cc4ccccc4Cl)CC3C2)c1 (stereo not shown) [Example 9, N-(1-(5-(2-chlorobenzyl)octahydropyrrolo[3,4-c]pyrrole-2-carbonyl)-1H-pyrazol-4-yl)-N-methylacetamide] |
| ≤ 100 nM | ≥ 75% | 1000 to 10000 nM | 0 to 25% | 0 to 25% |  |  | CC(=O)N(C)c1cnn(C(=O)N2C[C@H]3C[C@H](N(Cc4ccccc4Cl)C(C)=O)C[C@H]3C2)c1 [Example 172, N-(2-chlorobenzyl)-N-(trans-2-(4-(N-methylacetamido)-1H-pyrazole-1-carbonyl)octahydrocyclopenta[c]pyrrol-5-yl)acetamide] |
|  | ≥ 75% |  | ≥ 75% | ≥ 75% |  |  | CC(=O)Nc1cnn(C(=O)N2CCC3(CCN(Cc4cc(Cl)cc(C(F)(F)F)c4)C3)CC2)c1 [Example 313, N-(1-(2-(3-chloro-5-(trifluoromethyl)benzyl)-2,8-diazaspiro[4.5]decane-8-carbonyl)-1H-pyrazol-4-yl)acetamide] |
| 1000 to 10000 nM | ≥ 75% | ≤ 100 nM | ≥ 75% | ≥ 75% |  |  | Cc1cc(-c2ccccc2)ccc1CN1CCN(C(=O)n2cc(NS(C)(=O)=O)cn2)CC1 [Example 219, N-(1-(4-((3-methyl-[1,1′-biphenyl]-4-yl)methyl)piperazine-1-carbonyl)-1H-pyrazol-4-yl)methanesulfonamide] |
| ≤ 100 nM | ≥ 75% | ≤ 100 nM | ≥ 75% | ≥ 75% |  |  | CS(=O)(=O)Nc1cnn(C(=O)N2CCC3(CCN(Cc4cc(Cl)cc(C(F)(F)F)c4)C3)CC2)c1 [Example 297, N-(1-(2-(3-chloro-5-(trifluoromethyl)benzyl)-2,8-diazaspiro[4.5]decane-8-carbonyl)-1H-pyrazol-4-yl)methanesulfonamide] |
| ≤ 100 nM | 25 to 50% | 1000 to 10000 nM | ≥ 75% | 50 to 75% |  |  | CS(=O)(=O)Nc1cnn(C(=O)N2CCN(Cc3ccc(N4CCCC4)cc3C(F)(F)F)CC2)c1 [Example 292, N-(1-(4-(4-(pyrrolidin-1-yl)-2-(trifluoromethyl)benzyl)piperazine-1-carbonyl)-1H-pyrazol-4-yl)methanesulfonamide] |
| ≤ 100 nM | ≥ 75% | ≤ 100 nM | ≥ 75% | ≥ 75% |  |  | CC(=O)N(C)c1cnn(C(=O)N2C[C@H]3C[C@H](N(C)Cc4ccc(Cl)cc4)C[C@H]3C2)c1 [Example 148, N-(1-(trans-5-((4-chlorobenzyl)(methyl)amino)octahydrocyclopenta[c]pyrrole-2-carbonyl)-1H-pyrazol-4-yl)-N-methylacetamide] |
| 100 to 1000 nM | ≥ 75% | ≤ 100 nM | ≥ 75% | ≥ 75% |  |  | CC(=O)N(C)c1cnn(C(=O)N2CCC3(CCN(Cc4ccccc4C(F)(F)F)C3)C2)c1 (stereo not shown) [Example 58, N-methyl-N-(1-(7-(2-(trifluoromethyl)benzyl)-2,7-diazaspiro[4.4]nonane-2-carbonyl)-1H-pyrazol-4-yl)acetamide] |
| ≤ 100 nM | ≥ 75% | 1000 to 10000 nM | 25 to 50% | ≥ 75% |  |  | CC(=O)Nc1cnn(C(=O)N2CCN(Cc3ccc(C(F)(F)F)cc3N3CCCC3)CC2)c1 [Example 217, N-(1-(4-(2-(pyrrolidin-1-yl)-4-(trifluoromethyl)benzyl)piperazine-1-carbonyl)-1H-pyrazol-4-yl)acetamide] |
| ≤ 100 nM | ≥ 75% | 100 to 1000 nM | ≥ 75% | 0 to 25% |  |  | CC(=O)N(C)c1cnn(C(=O)N2CC3CN(Cc4ccc(Oc5cncnc5)cc4Cl)CC3C2)c1 (stereo not shown) [Example 274, N-(1-(5-(2-chloro-4-(pyrimidin-5-yloxy)benzyl)octahydropyrrolo[3,4-c]pyrrole-2-carbonyl)-1H-pyrazol-4-yl)-N-methylacetamide] |
| 100 to 1000 nM | ≥ 75% | ≤ 100 nM | ≥ 75% | 25 to 50% |  |  | CC(=O)N(C)c1cnn(C(=O)N2CCC3(CCN(Cc4cccc(Oc5ccccc5)c4)C3)C2)c1 (stereo not shown) [Example 236, N-methyl-N-(1-(7-(3-phenoxybenzyl)-2,7-diazaspiro[4.4]nonane-2-carbonyl)-1H-pyrazol-4-yl)acetamide] |
|  | 0 to 25% |  | 50 to 75% |  | ≥ 75% | ≥ 75% | COc1cccc(CN2CCC3(CCN(C(=O)n4cc(N(C)C(C)=O)cn4)C3)C2)c1 (stereo not shown) [Example 81, N-(1-(7-(3-methoxybenzyl)-2,7-diazaspiro[4.4]nonane-2-carbonyl)-1H-pyrazol-4-yl)-N-methylacetamide] |
| 100 to 1000 nM | 50 to 75% | ≤ 100 nM | ≥ 75% | ≥ 75% |  |  | CC(=O)N(C)c1cnn(C(=O)N2CCC3(CCN(Cc4ccccc4Cl)C3)C2)c1 (stereo not shown) [Example 50, N-(1-(7-(2-chlorobenzyl)-2,7-diazaspiro[4.4]nonane-2-carbonyl)-1H-pyrazol-4-yl)-N-methylacetamide] |
